The record followed here is patent US11858945B2, “Alkyne-containing antiviral agents” (Enanta Pharmaceuticals, Inc., priority 2021, dated 2024).

This experiment concerns the target SARS-CoV-2 3CL-protease (Severe acute respiratory syndrome coronavirus 2 (2019-nCoV) (SARS-CoV-2), UniProt P0DTD1). Nature of the experiment: SARS-CoV-2 3C-like (3CL) protease fluorescence assay (FRET). The settings on record: recombinant SARS-CoV-2 3CL-protease 10 nM, 30 min preincubation at RT, peptide substrate, run in duplicate; IC50 ranges. Type of experiment: biochemical.

Broadly, the IC50 is the point on the concentration scale where inhibition reaches its midpoint.

For the molecule `C#C[C@@H]1C[C@@]2(CN1C(=O)[C@H](CC(C)(C)F)NC(=O)c1cc3c(Cl)cccc3[nH]1)C(=O)Nc1ccccc12` [Compound 2, 4-chloro-N—((S)-1-((3R,5′S)-5′-ethynyl-2-oxospiro[indoline-3,3′-pyrrolidin]-1′-yl)-4-fluoro-4-methyl-1-oxopentan-2-yl)-1H-indole-2-carboxamide], the concentration for half-maximal inhibition (IC50) fell in the range of 100 to 1000 nM.

Consider `C#C[C@@H]1C[C@@]2(CN1C(=O)[C@H](CC(C)(C)F)NC(=O)c1cc(F)c3ncccc3c1)C(=O)Nc1ccccc12` [Compound 19, N—((S)-1-((3R,5′S)-5′-ethynyl-2-oxospiro[indoline-3,3′-pyrrolidin]-1′-yl)-4-fluoro-4-methyl-1-oxopentan-2-yl)-8-fluoroquinoline-6-carboxamide], for which the IC50 is more than 1000 nM.

As to `C#C[C@@H]1C[C@@]2(CN1C(=O)[C@H](CC(C)(C)F)NC(=O)c1cc3cccnc3[nH]1)C(=O)Nc1ccccc12` [Compound 16, N—((S)-1-((3R,5′S)-5′-ethynyl-2-oxospiro[indoline-3,3′-pyrrolidin]-1′-yl)-4-fluoro-4-methyl-1-oxopentan-2-yl)-1H-pyrrolo[2,3-b]pyridine-2-carboxamide], the 50% inhibitory concentration (IC50) was in the range of 100 to 1000 nM.

Turning to `C#C[C@@H]1C[C@@]2(CN1C(=O)[C@H](CC(C)(C)F)NC(=O)c1cc3cccc(Cl)c3[nH]1)C(=O)Nc1ccccc12` [Compound 5, 7-chloro-N—((S)-1-((3R,5′S)-5′-ethynyl-2-oxospiro[indoline-3,3′-pyrrolidin]-1′-yl)-4-fluoro-4-methyl-1-oxopentan-2-yl)-1H-indole-2-carboxamide], the half-maximal inhibitory concentration (IC50) was less than 100 nM.

Turning to `C#C[C@@H]1C[C@@]2(CN1C(=O)[C@H](CC(C)(C)F)NC(=O)c1cc3cccc(F)c3o1)C(=O)Nc1ccccc12` [Compound 17, N—((S)-1-((3R,5′S)-5′-ethynyl-2-oxospiro[indoline-3,3′-pyrrolidin]-1′-yl)-4-fluoro-4-methyl-1-oxopentan-2-yl)-7-fluorobenzofuran-2-carboxamide], the half-inhibitory concentration (IC50) was more than 1000 nM.

Regarding `C#C[C@@H]1C[C@@]2(CN1C(=O)[C@H](CC(C)(C)F)NC(=O)c1cccc(OC(F)(F)F)c1)C(=O)Nc1ccccc12` [Compound 20, N—((S)-1-((3R,5′S)-5′-ethynyl-2-oxospiro[indoline-3,3′-pyrrolidin]-1′-yl)-4-fluoro-4-methyl-1-oxopentan-2-yl)-3-(trifluoromethoxy)benzamide], the IC50 was 100 to 1000 nM.

On to `C#C[C@@H]1C[C@@]2(CN1C(=O)[C@H](CC(C)(C)F)NC(=O)c1cc3cccc(C#N)c3[nH]1)C(=O)Nc1ccccc12` [Compound 15, 7-cyano-N—((S)-1-((3R,5′S)-5′-ethynyl-2-oxospiro[indoline-3,3′-pyrrolidin]-1′-yl)-4-fluoro-4-methyl-1-oxopentan-2-yl)-1H-indole-2-carboxamide], for which the IC50 was less than 100 nM.

With `C#C[C@@H]1C[C@@]2(CN1C(=O)[C@H](CC(C)(C)F)NC(=O)c1cc3cccc(F)c3[nH]1)C(=O)Nc1ccccc12` [Compound 8, N—((S)-1-((3R,5′S)-5′-ethynyl-2-oxospiro[indoline-3,3′-pyrrolidin]-1′-yl)-4-fluoro-4-methyl-1-oxopentan-2-yl)-7-fluoro-1H-indole-2-carboxamide], the concentration for half-maximal inhibition (IC50) is less than 100 nM.

In the case of `C#C[C@@H]1C[C@@]2(CN1C(=O)[C@H](CC(C)(C)F)NC(=O)c1cc3ccc(Cl)c(Cl)c3[nH]1)C(=O)Nc1ccccc12` [Compound 7, 6,7-dichloro-N—((S)-1-((3R,5′S)-5′-ethynyl-2-oxospiro[indoline-3,3′-pyrrolidin]-1′-yl)-4-fluoro-4-methyl-1-oxopentan-2-yl)-1H-indole-2-carboxamide], the IC50 is less than 100 nM.

For `C#C[C@@H]1C[C@@]2(CN1C(=O)[C@H](CC(C)(C)F)NC(=O)c1cc3cc(F)c(F)c(F)c3[nH]1)C(=O)Nc1ccccc12` [Compound 12, N—((S)-1-((3R,5′S)-5′-ethynyl-2-oxospiro[indoline-3,3′-pyrrolidin]-1′-yl)-4-fluoro-4-methyl-1-oxopentan-2-yl)-5,6,7-trifluoro-1H-indole-2-carboxamide], the IC50 was less than 100 nM.

In the case of `C#C[C@@H]1C[C@@]2(CN1C(=O)[C@H](CC(C)(C)F)NC(=O)c1cc3ccc(F)cc3[nH]1)C(=O)Nc1ccccc12` [Compound 9, N—((S)-1-((3R,5′S)-5′-ethynyl-2-oxospiro[indoline-3,3′-pyrrolidin]-1′-yl)-4-fluoro-4-methyl-1-oxopentan-2-yl)-6-fluoro-1H-indole-2-carboxamide], the half-inhibitory concentration (IC50) is less than 100 nM.

`C#C[C@@H]1C[C@@]2(CN1C(=O)[C@H](CC(C)(C)F)NC(=O)c1c(Cl)cccc1Cl)C(=O)Nc1ccccc12` [Compound 21, 2,6-dichloro-N—((S)-1-((3R,5′S)-5′-ethynyl-2-oxospiro[indoline-3,3′-pyrrolidin]-1′-yl)-4-fluoro-4-methyl-1-oxopentan-2-yl)benzamide]: the IC50 was more than 1000 nM.

Turning to `C#C[C@@H]1C[C@@]2(CN1C(=O)[C@H](CC(C)(C)F)NC(=O)c1cc3cc(S(C)(=O)=O)ccc3[nH]1)C(=O)Nc1ccccc12` [Compound 1, N—((S)-1-((3R,5′S)-5′-ethynyl-2-oxospiro[indoline-3,3′-pyrrolidin]-1′-yl)-4-fluoro-4-methyl-1-oxopentan-2-yl)-5-(methylsulfonyl)-1H-indole-2-carboxamide], the IC50 lay in the range of 100 to 1000 nM.

As for `C#C[C@@H]1C[C@@]2(CN1C(=O)[C@H](CC(C)(C)F)NC(=O)c1cc3ccc(Cl)cc3[nH]1)C(=O)Nc1ccccc12` [Compound 4, 6-chloro-N—((S)-1-((3R,5′S)-5′-ethynyl-2-oxospiro[indoline-3,3′-pyrrolidin]-1′-yl)-4-fluoro-4-methyl-1-oxopentan-2-yl)-1H-indole-2-carboxamide], the IC50 is less than 100 nM.

In the case of `C#C[C@@H]1C[C@@]2(CN1C(=O)[C@H](CC(C)(C)F)NC(=O)c1cc3cc(F)ccc3o1)C(=O)Nc1ccccc12` [Compound 18, N—((S)-1-((3R,5′S)-5′-ethynyl-2-oxospiro[indoline-3,3′-pyrrolidin]-1′-yl)-4-fluoro-4-methyl-1-oxopentan-2-yl)-5-fluorobenzofuran-2-carboxamide], the IC50 was more than 1000 nM.

For `C#C[C@@H]1C[C@@]2(CN1C(=O)[C@H](CC(C)(C)F)NC(=O)c1cc3c(F)cc(F)cc3[nH]1)C(=O)Nc1ccccc12` [Compound 10, N—((S)-1-((3R,5′S)-5′-ethynyl-2-oxospiro[indoline-3,3′-pyrrolidin]-1′-yl)-4-fluoro-4-methyl-1-oxopentan-2-yl)-4,6-difluoro-1H-indole-2-carboxamide], the concentration for half-maximal inhibition (IC50) fell in the range of 100 to 1000 nM.

For the molecule `C#C[C@@H]1C[C@@]2(CN1C(=O)[C@H](CC(C)(C)F)NC(=O)c1cc3c(F)ccc(F)c3[nH]1)C(=O)Nc1ccccc12` [Compound 11, N—((S)-1-((3R,5′S)-5′-ethynyl-2-oxospiro[indoline-3,3′-pyrrolidin]-1′-yl)-4-fluoro-4-methyl-1-oxopentan-2-yl)-4,7-difluoro-1H-indole-2-carboxamide], the IC50 was less than 100 nM.

Consider `C#C[C@@H]1C[C@@]2(CN1C(=O)[C@H](CC(C)(C)F)NC(=O)c1cc3c(Cl)cc(Cl)cc3[nH]1)C(=O)Nc1ccccc12` [Compound 6, 4,6-dichloro-N—((S)-1-((3R,5′S)-5′-ethynyl-2-oxospiro[indoline-3,3′-pyrrolidin]-1′-yl)-4-fluoro-4-methyl-1-oxopentan-2-yl)-1H-indole-2-carboxamide], for which the IC50 lay within 100 to 1000 nM.

Take `C#C[C@@H]1C[C@@]2(CN1C(=O)[C@H](CC(C)(C)F)NC(=O)c1cc3cc(C(F)(F)F)ccc3[nH]1)C(=O)Nc1ccccc12` [Compound 14, N—((S)-1-((3R,5′S)-5′-ethynyl-2-oxospiro[indoline-3,3′-pyrrolidin]-1′-yl)-4-fluoro-4-methyl-1-oxopentan-2-yl)-5-(trifluoromethyl)-1H-indole-2-carboxamide]: the IC50 fell in the range of 100 to 1000 nM.

For the molecule `C#C[C@@H]1C[C@@]2(CN1C(=O)[C@H](CC(C)(C)F)NC(=O)c1cc3cc(Cl)ccc3[nH]1)C(=O)Nc1ccccc12` [Compound 3, 5-chloro-N—((S)-1-((3R,5′S)-5′-ethynyl-2-oxospiro[indoline-3,3′-pyrrolidin]-1′-yl)-4-fluoro-4-methyl-1-oxopentan-2-yl)-1H-indole-2-carboxamide], the IC50 was in the range of 100 to 1000 nM.

In the case of `C#C[C@@H]1C[C@@]2(CN1C(=O)[C@H](CC(C)(C)F)NC(=O)c1cc3cccc(C(F)(F)F)c3[nH]1)C(=O)Nc1ccccc12` [Compound 13, N—((S)-1-((3R,5′S)-5′-ethynyl-2-oxospiro[indoline-3,3′-pyrrolidin]-1′-yl)-4-fluoro-4-methyl-1-oxopentan-2-yl)-7-(trifluoromethyl)-1H-indole-2-carboxamide], the 50% inhibitory concentration (IC50) is less than 100 nM.
